The compounds below were run against T1, human NK3 receptor (Homo sapiens, UniProt P29371) (assay: [3H]SR142801 competition binding assay). Conditions: hNK3 receptor binding, [3H]SR142801, membranes from HEK293 cells transiently expressing recombinant human NK3 receptor.
T1 construct: expressed in transfected cells; host or cells: HEK293 cells (transient expression), membrane preparation
T1 sequence (P29371 1-465): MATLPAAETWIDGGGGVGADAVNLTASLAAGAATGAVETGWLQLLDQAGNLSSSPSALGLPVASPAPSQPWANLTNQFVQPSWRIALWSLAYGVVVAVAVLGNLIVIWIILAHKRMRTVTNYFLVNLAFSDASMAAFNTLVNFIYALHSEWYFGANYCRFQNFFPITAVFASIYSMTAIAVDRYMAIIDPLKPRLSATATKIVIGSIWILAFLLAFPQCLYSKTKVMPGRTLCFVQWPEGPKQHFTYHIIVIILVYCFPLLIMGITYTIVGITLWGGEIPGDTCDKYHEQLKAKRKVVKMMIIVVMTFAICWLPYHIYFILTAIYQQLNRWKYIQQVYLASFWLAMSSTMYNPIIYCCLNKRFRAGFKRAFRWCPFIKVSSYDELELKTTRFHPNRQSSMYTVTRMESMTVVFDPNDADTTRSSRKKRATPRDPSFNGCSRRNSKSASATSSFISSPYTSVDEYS
Outline: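 Membranes from HEK293 cells transiently expressing human NK3 were incubated 75 min at RT with [3H]SR142801 at its KD and inhibitor (0.0003-10 μM) in Tris-HCl pH 7.4/MnCl2/phosphoramidon/BSA. Nonspecific binding used 10 μM SB222200. Ki from Hill-fitted IC50 via Cheng-Prusoff, duplicate determinations.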

Compared with `CC(=O)NC1CCN(CCCCC(=O)N2C[C@H](c3ccc(Cl)c(Cl)c3)[C@@H](N(C)Cc3ccc(C(F)(F)F)c(F)c3)C2)CC1` (racemic) [Example 105, N-[1-(5-{(3SR,4RS)-3-(3,4-Dichloro-phenyl)-4-[(3-fluoro-4-trifluoromethyl-benzyl)-methyl-amino]-pyrrolidin-1-yl}-5-oxo-pentyl)-piperidin-4-yl]-acetamide], `CN(Cc1ccc(C(F)(F)F)c(F)c1)[C@H]1CN(C(=O)CN2CCC(O)CC2)C[C@@H]1c1ccc(Cl)c(Cl)c1` (racemic) [Example 132, 1-{(3SR,4RS)-3-(3,4-Dichloro-phenyl)-4-[(3-fluoro-4-trifluoromethyl-benzyl)-methyl-amino]-pyrrolidin-1-yl}-2-(4-hydroxy-piperidin-1-yl)-ethanone] is 2.4-fold lower in Ki: 0.0622 µM for the first, 0.0263 µM for the second. The second binds more tightly here.

Going from `CN(Cc1ccc(C(F)(F)F)c(F)c1)[C@H]1CN(C(=O)CCCCN2CCOCC2)C[C@@H]1c1cccc(Cl)c1` (racemic) [Example 107, 1-{(3SR,4RS)-3-(3-Chloro-phenyl)-4-[(3-fluoro-4-trifluoromethyl-benzyl)-methyl-amino]-pyrrolidin-1-yl}-5-morpholin-4-yl-pentan-1-one] to `CN(Cc1ccc(C(F)(F)F)c(F)c1)[C@H]1CN(C(=O)CN2CCOCC2)C[C@@H]1c1ccc(Cl)c(Cl)c1` (racemic) [Example 113, 1-{(3SR,4RS)-3-(3,4-Dichloro-phenyl)-4-[(3-fluoro-4-trifluoromethyl-benzyl)-methyl-amino]-pyrrolidin-1-yl}-2-morpholin-4-yl-ethanone], the Ki falls from 0.0812 µM to 0.0457 µM (1.8-fold). The second binds more tightly here.

Going from `CN1CCN(CC(=O)N2C[C@H](c3ccc(Cl)c(Cl)c3)[C@@H](N(C)Cc3ccc(C(F)(F)F)c(F)c3)C2)CC1` (racemic) [Example 114, 1-{(3SR,4RS)-3-(3,4-Dichloro-phenyl)-4-[(3-fluoro-4-trifluoromethyl-benzyl)-methyl-amino]-pyrrolidin-1-yl}-2-(4-methyl-piperazin-1-yl)-ethanone] to `CN(Cc1ccc(C(F)(F)F)c(F)c1)[C@H]1CN(C(=O)CN2CCN(S(C)(=O)=O)CC2)C[C@@H]1c1ccc(Cl)c(Cl)c1` (racemic) [Example 115, 1-{(3SR,4RS)-3-(3,4-Dichloro-phenyl)-4-[(3-fluoro-4-trifluoromethyl-benzyl)-methyl-amino]-pyrrolidin-1-yl}-2-(4-methanesulfonyl-piperazin-1-yl)-ethanone], the Ki falls from 0.0402 µM to 0.013 µM (3.1-fold). The second binds more tightly here.

`CN(Cc1ccc(C(F)(F)F)c(F)c1)[C@H]1CN(C(=O)CN2CCN(S(=O)(=O)N(C)C)CC2)C[C@@H]1c1ccc(Cl)c(Cl)c1` (racemic) [Example 116, 4-(2-{(3SR,4RS)-3-(3,4-Dichloro-phenyl)-4-[(3-fluoro-4-trifluoromethyl-benzyl)-methyl-amino]-pyrrolidin-1-yl}-2-oxo-ethyl)-piperazine-1-sulfonic acid dimethylamide] and `CN(C)CCN1CCN(CC(=O)N2C[C@H](c3ccc(Cl)c(Cl)c3)[C@@H](N(C)Cc3ccc(C(F)(F)F)c(F)c3)C2)CC1` (racemic) [Example 117, 1-{(3SR,4RS)-3-(3,4-Dichloro-phenyl)-4-[(3-fluoro-4-trifluoromethyl-benzyl)-methyl-amino]-pyrrolidin-1-yl}-2-[4-(2-dimethylamino-ethyl)-piperazin-1-yl]-ethanone] are within 1.5-fold of each other in Ki: 0.0169 µM for the first, 0.0193 µM for the second.

First: CN(Cc1ccc(C(F)(F)F)c(F)c1)[C@H]1CN(C(=O)CN2CCN(CCC#N)CC2)C[C@@H]1c1ccc(Cl)c(Cl)c1 (racemic) [Example 118, 3-[4-(2-{(3SR,4RS)-3-(3,4-Dichloro-phenyl)-4-[(3-fluoro-4-trifluoromethyl-benzyl)-methyl-amino]-pyrrolidin-1-yl}-2-oxo-ethyl)-piperazin-1-yl]-propionitrile]
Second: CN(Cc1ccc(C(F)(F)F)c(F)c1)[C@H]1CN(C(=O)CN2CCN(CCCO)CC2)C[C@@H]1c1ccc(Cl)c(Cl)c1 (racemic) [Example 129, 1-{(3SR,4RS)-3-(3,4-Dichloro-phenyl)-4-[(3-fluoro-4-trifluoromethyl-benzyl)-methyl-amino]-pyrrolidin-1-yl}-2-[4-(3-hydroxy-propyl)-piperazin-1-yl]-ethanone]
The Ki of the first is 1.5-fold lower: 0.0112 µM for the first, 0.0171 µM for the second.

`CN(C)CCNCC(=O)N1C[C@H](c2ccc(Cl)c(Cl)c2)[C@@H](N(C)Cc2ccc(C(F)(F)F)c(F)c2)C1` (racemic) [Example 124, 1-{(3SR,4RS)-3-(3,4-Dichloro-phenyl)-4-[(3-fluoro-4-trifluoromethyl-benzyl)-methyl-amino]-pyrrolidin-1-yl}-2-(2-dimethylamino-ethylamino)-ethanone] and `CN(C)CCCNCC(=O)N1C[C@H](c2ccc(Cl)c(Cl)c2)[C@@H](N(C)Cc2ccc(C(F)(F)F)c(F)c2)C1` (racemic) [Example 125, 1-{(3SR,4RS)-3-(3,4-Dichloro-phenyl)-4-[(3-fluoro-4-trifluoromethyl-benzyl)-methyl-amino]-pyrrolidin-1-yl}-2-(3-dimethylamino-propylamino)-ethanone] are within 1.5-fold of each other in Ki: 0.0964 µM for the first, 0.0768 µM for the second.

`CN(C)CCCN(C)CC(=O)N1C[C@H](c2ccc(Cl)c(Cl)c2)[C@@H](N(C)Cc2ccc(C(F)(F)F)c(F)c2)C1` (racemic) [Example 126, 1-{(3SR,4RS)-3-(3,4-Dichloro-phenyl)-4-[(3-fluoro-4-trifluoromethyl-benzyl)-methyl-amino]-pyrrolidin-1-yl}-2-[(3-dimethylamino-propyl)-methyl-amino]-ethanone] and `CN(CCC#N)CC(=O)N1C[C@H](c2ccc(Cl)c(Cl)c2)[C@@H](N(C)Cc2ccc(C(F)(F)F)c(F)c2)C1` (racemic) [Example 128, 3-[(2-{(3SR,4RS)-3-(3,4-Dichloro-phenyl)-4-[(3-fluoro-4-trifluoromethyl-benzyl)-methyl-amino]-pyrrolidin-1-yl}-2-oxo-ethyl)-methyl-amino]-propionitrile] are within 1.5-fold of each other in Ki: 0.0805 µM for the first, 0.072 µM for the second.

Compared with `CN(Cc1ccc(C(F)(F)F)c(F)c1)[C@H]1CN(C(=O)CNCCC#N)C[C@@H]1c1ccc(Cl)c(Cl)c1` (racemic) [Example 127, 3-(2-{(3SR,4RS)-3-(3,4-Dichloro-phenyl)-4-[(3-fluoro-4-trifluoromethyl-benzyl)-methyl-amino]-pyrrolidin-1-yl}-2-oxo-ethylamino)-propionitrile], `CN(Cc1ccc(C(F)(F)F)c(F)c1)[C@H]1CN(C(=O)CN2CCC(C#N)CC2)C[C@@H]1c1ccc(Cl)c(Cl)c1` (racemic) [Example 130, 1-(2-{(3SR,4RS)-3-(3,4-Dichloro-phenyl)-4-[(3-fluoro-4-trifluoromethyl-benzyl)-methyl-amino]-pyrrolidin-1-yl}-2-oxo-ethyl)-piperidine-4-carbonitrile] is 3.9-fold lower in Ki: 0.0997 µM for the first, 0.0254 µM for the second.

First: CN(Cc1ccc(C(F)(F)F)c(F)c1)[C@H]1CN(C(=O)CN2CCNCC2)C[C@@H]1c1ccc(Cl)c(Cl)c1 (racemic) [Example 131, 1-{(3SR,4RS)-3-(3,4-Dichloro-phenyl)-4-[(3-fluoro-4-trifluoromethyl-benzyl)-methyl-amino]-pyrrolidin-1-yl}-2-piperazin-1-yl-ethanone]
Second: CN(C)C1CCN(CC(=O)N2C[C@H](c3ccc(Cl)c(Cl)c3)[C@@H](N(C)Cc3ccc(C(F)(F)F)c(F)c3)C2)CC1 (racemic) [Example 136, 1-{(3SR,4RS)-3-(3,4-Dichloro-phenyl)-4-[(3-fluoro-4-trifluoromethyl-benzyl)-methyl-amino]-pyrrolidin-1-yl}-2-(4-dimethylamino-piperidin-1-yl)-ethanone]
The Ki of the first is 1.8-fold higher: 0.0334 µM for the first, 0.0189 µM for the second.

From US8022099B2, “N-benzyl pyrrolidine derivatives” (Hoffmann-La Roche Inc., priority 2008, dated 2011)
